In article PMC8842277, “Highly Antiproliferative Latonduine and Indolo[2,3-c]quinoline Derivatives: Complex Formation with Copper(II) Markedly Changes the Kinase Inhibitory Profile” (Journal of Medicinal Chemistry, 2022):
“And” between values parts separate entries of the source, which are not always exact repeats. Equal values may be shown once. Read-outs that look alike come from different tables or passages of the source.

How the values were obtained:
[1] = Proton dissociation constants by UV–vis titration; assay type: physicochemical; settings: 30–70% (w/w) DMSO–water; for pKa: DMSO:water 30:70 (w/w) solvent mixture
Method: The protonation processes of HL^1nm and its morpholine counterpart HL^1 (Chart 3) and the solution stability of their copper(II) complexes (1nm and 1) were characterized by UV–vis spectrophotometry. […] Based on the characteristic changes in the UV–vis spectra for HL^1nm in the pH range 2–6 (Figure 3a), two relatively well-separated proton dissociation processes were observed and their pKa values were determined (Table 1).
(§1) An Agilent Carry 8454 diode array spectrophotometer was used to record the UV–visible (UV–vis) spectra in the interval 200–800 nm. The path length was 2 or 0.5 cm. Spectrophotometric titrations were performed on samples containing the proligands HL^1, HL^1nm, or their copper(II) complexes (1 and 1nm; see Chart 2) by a KOH solution in the presence of 0.1 M KCl in a DMSO:water 30:70 (w/w) mixture as a solvent at 25.0 ± 0.1 °C in the pH range from 2 to 11. […] An Orion 710A pH meter equipped with a Metrohm combined electrode (type 6.0234.100) and a Metrohm 665 Dosimat burette were used for the pH measurements and titrations. […] The average water ionization constant (pKw) is 14.52 ± 0.05, which corresponds well to the literature data.[103] Argon was passed over the solutions during the titrations. Proton dissociation constants (pKa) of the ligand, overall stability constants (log β) of the copper(II) complexes, and the individual spectra of the various species present in the solution were calculated by the computer program PSEQUAD.[104] β (MpLqHr) is defined for the general equilibrium pM + qL + rH MpLqHr as β (MpLqHr) = [MpLqHr]/[M]^p[L]^q[H]^r where M denotes the copper(II) ion and L the completely deprotonated ligand. The calculations were always made from the experimental titration data measured in the absence of any precipitate in the solution.

[2] = test system: normal human embryonal lung fibroblast cells (MRC-5); assay: MTT antiproliferative assay; assay type: cell-based; settings: read-out: IC50 MRC-5 benign, mean
Method: (§2) The in vitro antiproliferative activity of the compounds was tested in doxorubicin-sensitive Colo205 and multidrug-resistant Colo320 human colon adenocarcinoma cell lines as well as in normal human embryonal lung fibroblast cells (MRC-5) by MTT assay.
(§3) Human colonic adenocarcinoma cell lines Colo 205 doxorubicin-sensitive (ATCC-CCL-222) and Colo 320/MDR-LRP multidrug resistant over-expressing ABCB1 (MDR1)-LRP (ATCC-CCL-220.1) were purchased from LGC Promochem, Teddington, UK. The cells were cultured in an RPMI 1640 medium supplemented with 10% heat-inactivated fetal bovine serum, 2 mM L-glutamine, 1 mM Na-pyruvate, and 10 mM HEPES. The semi-adherent human colon cancer cells were detached with Trypsin-Versene (EDTA) solution for 5 min at 37 °C. An MRC-5 human embryonal lung fibroblast cell line (ATCC CCL-171) was purchased from LGC Promochem, Teddington, UK. The cells were cultured in Eagle’s minimal essential medium (EMEM, containing 4.5 g L^–1 glucose) supplemented with a non-essential amino acid mixture, a selection of vitamins, and 10% heat-inactivated fetal bovine serum. The HCT-116 colon carcinoma cells and isogenic p53-knock-out subline were a gift of Prof. Bert Vogelstein from The Johns Hopkins Oncology Center. Cells were cultured in McCoy’s 5A medium supplemented with 10% heat-inactivated fetal bovine serum and 4 mM L-glutamine. All cell lines were incubated at 37 °C, in a 5% CO2, 95% air atmosphere.
(§4) MRC-5 non-cancerous human embryonic lung fibroblast and human colonic adeno-carcinoma cell lines (doxorubicin-sensitive Colo 205 and multidrug resistant Colo 320 colonic adenocarcinoma cells) were used to determine the effect of compounds on cell growth. The effects of increasing concentrations of compounds on cell growth were tested in 96-well flat-bottomed microtiter plates. The compounds were dissolved in DMSO and stock solutions of 10 mM were prepared. These were further diluted in the appropriate cell culture medium by twofold serial dilution starting from 100 or 10 μM for the compounds. The adherent human embryonal lung fibroblast cells were cultured in 96-well flat-bottomed microtiter plates using EMEM supplemented with 10% heat-inactivated fetal bovine serum. The density of the cells was adjusted to 1 × 10^4 cells in 100 μL per well, the cells were seeded for 24 h at 37 °C, 5% CO2, then the medium was removed from the plates containing the cells, and the dilutions of compounds previously made in a separate plate were added to the cells in 200 μL. In the case of the colonic adenocarcinoma cells, the twofold serial dilutions of compounds were prepared in 100 μL of RPMI 1640, horizontally. The semi-adherent colonic adenocarcinoma cells were treated with Trypsin-Versene (EDTA) solution. They were adjusted to a density of 1 × 10^4 cells in 100 μL of RPMI 1640 medium and were added to each well, with the exception of the medium control wells. The final volume of the wells containing compounds and cells was 200 μL. The culture plates were incubated at 37 °C for 72 h; at the end of the incubation period, 20 μL of MTT (thiazolyl blue tetrazolium bromide, Sigma) solution (from a stock solution of 5 mg mL^–1) was added to each well. After incubation at 37 °C for 4 h, 100 μL of sodium dodecyl sulfate (SDS) (Sigma) solution (10% in 0.01 M HCI) was added to each well and the plates were further incubated at 37 °C overnight. Cell growth was determined by measuring the optical density (OD) at 540/630 nm with a Multiscan EX ELISA reader (Thermo Labsystems, Cheshire, WA, USA). […] Curves were fitted by GraphPad Prism software[57] using the sigmoidal dose–response model (comparing variable and fixed slopes). The IC50 values were obtained from at least three independent experiments. Tests in adherent HCT-116 colon carcinoma cells and an isogenic p53-knock-out subline thereof were performed in a similar manner, with 1.5 × 10^3 cells seeded in 100 μL of McCoy’s 5A medium (Sigma-Aldrich) per well. […]

[3] = Overall stability constants of copper(II) complexes by UV–vis titration; assay type: physicochemical; settings: 30–70% (w/w) DMSO–water, 298 K
From the text: The tridentate coordination via the N,N,N donor set is assumed in [Cu(HL^1nm)]^2+ at such low pH. […] The deprotonation of the non-coordinating hydrazonic nitrogen is likely, and complex [Cu(L^1nm)]^+ is formed. […] However, the absorbance is decreased in the whole wavelength range due to precipitate formation. By the deconvolution of the recorded UV–vis spectra, overall stability constants for the complexes [Cu(HL^1nm)]^2+ and [Cu(L^1nm)]^+ were computed, and log β for [Cu(L^1nm)(OH)] was only estimated (Table 1). In the case of the morpholine hybrid, a somewhat different speciation was obtained as the presence of the pendant morpholine moiety had to be taken into consideration. Log β values for [CuH(HL^1)]^3+, [CuH(L^1)]^2+, and [Cu(L^1)]^+ were computed from the spectrophotometric titration data (Table 1). Since the molar absorbance spectra of [CuH(HL^1)]^3+ and [CuH(L^1)]^2+ complexes resemble those of [Cu(HL^1nm)]^2+ and [Cu(L^1nm)]^+ (Figure 4b), the same coordination modes are likely in these species in couples. […] Increasing the pH (pH > 5), the absorbance is decreased in the whole wavelength range, no isosbestic points are found (indicating the formation of some precipitate), while the λmax is increased. Formation of a mixed hydroxido species [CuH(L^1)(OH)]^+ is also possible. However, the deprotonation of the morpholinium group can take place as well (formation of [Cu(L^1)]^+) in this pH range. As these two processes are overlapping, the two species could not be well distinguished, and the obtained stability constant is quite uncertain.
as §1

[4] = design: method as in PMID 31125040; settings: cited from earlier work
[5] = Solubility in water/DMSO 99/1; assay type: physicochemical
Method: To a solution of HL^1 (203 mg, 0.45 mmol) in isopropanol (10 mL) a solution of CuCl2·2H2O (77 mg, 0.45 mmol) in methanol (500 μL) was added. The mixture was heated at reflux for 1 h, cooled to room temperature, and allowed to stand at 4 °C overnight. The product was filtered off, washed with isopropanol (3 mL), and dried in vacuo overnight to give a red-brown powder. Yield: 245 mg. Solubility in water/DMSO 99/1: ≥11 mg mL^–1.

[6] = test system: doxorubicin-sensitive Colo205 human colon adenocarcinoma cells; assay: MTT antiproliferative assay; assay type: cell-based; settings: for selectivity factor (SF) Colo205: IC50 MRC-5/IC50 Colo205; for IC50: MTT, 72 h
Method: as §2, §3, §4

[7] = test system: multidrug-resistant Colo320 human colon adenocarcinoma cells; assay: MTT antiproliferative assay; assay type: cell-based; settings: for selectivity factor (SF) Colo320: IC50 MRC-5/IC50 Colo320; for IC50: MTT, 72 h
Method: as §2, §3, §4

[8] = Thermodynamic solubility, UV–vis of saturated solutions; settings: water, 298 K
Method: The concentration of the compounds was determined by UV–vis spectrophotometry using stock solutions of the compounds with a known concentration dissolved in pure DMSO and 50% (v/v) DMSO/buffered aqueous solution for the calibration.

[9] = 298 K, I = 0.10 M (KCl), read-out: pKa2

Compound	pKa [1, 9]	Solubility in water/DMSO 99/1 [5]	IC50 ([2]; 72 h)	selectivity factor (SF) Colo205 [6]	IC50 [6]	selectivity factor (SF) Colo320 [7]	IC50 [7]	other results
C(=N\N=C1/NCc2ccccc2-c2c1[nH]c1ccccc21)/c1ccc(CN2CCOCC2)cn1 [HL^1]	4.53 ± 0.02	–	–	–	–	–	–	pKa ([1]; 298 K, I = 0.10 M (KCl), read-out: pKa3): 5.65 ± 0.02; IC50 ([2]; Homo sapiens, MRC5, 72 h): 3020 nM; log β [CuH(HL^1)]^3+ ([3]; I = 0.10 M (KCl)): 12.38 ± 0.01; log β [CuH(L^1)]^2+ ([3]; I = 0.10 M (KCl)): 8.57 ± 0.01
C(=N\N=C1/NCc2ccccc2-c2c1[nH]c1ccccc21)/c1ccccn1 [HL^1nm]	4.75 ± 0.01	–	–	–	–	–	–	pKa ([1]; 298 K, I = 0.10 M (KCl), read-out: pKa1): 2.32 ± 0.01; log β [Cu(HL^1nm)]^2+ ([3]; I = 0.10 M (KCl)): 8.33 and 8.33 ± 0.01; log β [Cu(L^1nm)]^+ ([3]; I = 0.10 M (KCl)): 4.01 and 4.01 ± 0.01; log β [Cu(L^1nm)(OH)] ([3]; only estimated): –3.1 ± 0.1
CC(=NN=C1NCc2ccccc2-c2c1[nH]c1ccccc21)c1ccccn1 [HL^3nm]	–	–	–	–	–	–	–	log β (copper(II) complexes of HL^3nm) [4]: 6.39; log β [Cu(HL^3nm)]^2+ [4]: 10.96
C(=NNC1=NCc2ccccc2-c2c1[nH]c1ccccc21)c1ccc(CN2CCOCC2)cn1.[Cl][Cu][Cl] [compound 1, CuCl2(HL^1)·H2O]	–	≥ 11 mg mL^–1	1900 nM	1.33	1420 nM	0.83	2290 nM	pKa [CuH(HL^1)]^3+ ([1]; 298 K, I = 0.10 M (KCl)): 3.81; pKa [CuH(L^1)]^2+ ([1]; overlapping species (footnote a)): 5.71
Brc1ccc2[nH]c3c(c2c1)-c1ccccc1CN=C3NN=Cc1ccc(CN2CCOCC2)cn1.[Cl][Cu][Cl] [compound 2, CuCl2(HL^2)·2H2O]	–	≥ 14 mg mL^–1	5520 nM	2.01	2740 nM	1.73	3190 nM	–
CC(=NNC1=NCc2ccccc2-c2c1[nH]c1ccccc21)c1ccc(CN2CCOCC2)cn1.[Cl][Cu][Cl] [compound 3, CuCl2(HL^3)·0.2C3H7OH·0.3H2O]	–	≥ 10 mg mL^–1	413 nM	1.80	230 nM	1.23	335 nM	Thermodynamic solubility (S) ([8]; pH 5, 20 mM MES buffer): 63.4 µM; Thermodynamic solubility (S) ([8]; pH 7.4, 20 mM HEPES): 6.0 µM
